1 compound from patent EP0668872B1 (priority 1992, dated 1994) can be followed below.

The test concerns calcium channels. To be noted: read-out: IC50 values for blocking calcium channels; cerebellar granule cells of 8 day old rats, 6, 7 and 8 days of culture; fura2/AM fluorescence, 37°C.

In the case of `COc1ccc(CCN(C)CCCC(C#N)(c2ccc(OC)c(OC)c2)C(C)C)cc1OC` (stereo not shown) [Verapamil], the half-inhibitory concentration (IC50) stood at 4.8 µM.
